Each structure is given as a SMILES string.

One data set relates to human skin. Briefly: Mitigation of irritation by inorganic base (inventors' research). It is filed as in vivo. Particulars: as third salt (metal oxide).
The conditions of data set [1]: at 30° C.; cited from earlier work.

In the case of `[O]=[Zn]` [zinc oxide], in the data set on human skin, the mitigating irritation result was “ineffective”. In addition, in data set [1], the water solubility was 1.6 µg/mL.
